Activity calls are given as the source filed them. The calls are words filed in the database; no cut-off is given here.
Key:
[1] = system: OVCAR-8; experiment: Cell cycle arrest in human OVCAR8 cells assessed as accumulation at G2/M phase at 5 uM incubated for 24 hrs by propidium iodide staining based flow cytometry (reference value: 25.78 +/- 0.71%); assay type: functional
[2] = system: OVCAR-8; experiment: Cell cycle arrest in human OVCAR8 cells assessed as accumulation at S phase at 10 uM incubated for 24 hrs by propidium iodide staining based flow cytometry (reference value: 7.1 +/- 0.86%); assay type: functional
[3] = system: OVCAR-8; experiment: Cytotoxicity against human OVCAR8 cells assessed as reduction in cell viability incubated for 72 hrs by MTT assay; assay type: functional, cell-based; details: OVCAR-8, 72 h
[4] = system: SF-295; experiment: Cytotoxicity against human SF295 cells assessed as reduction in cell viability incubated for 72 hrs by MTT assay; assay type: functional, cell-based; details: SF-295, 72 h
[5] = system: OVCAR-8; experiment: Cell cycle arrest in human OVCAR8 cells assessed as accumulation at G0/G1 phase at 10 uM incubated for 24 hrs by propidium iodide staining based flow cytometry (reference value: 67.06 +/- 1.42%); assay type: functional
[6] = system: OVCAR-8; experiment: Cytotoxicity against human OVCAR8 cells assessed as reduction in cell viability at 1 to 4 uM measured upto 98 hrs by xcCELLigence RTCA analysis; assay type: functional, cell-based
[7] = system: OVCAR-8; experiment: Cell cycle arrest in human OVCAR8 cells assessed as accumulation at G0/G1 phase at 5 uM incubated for 24 hrs by propidium iodide staining based flow cytometry (reference value: 67.06 +/- 1.42%); assay type: functional
[8] = system: HCT-116; experiment: Cytotoxicity against human HCT116 cells assessed as reduction in cell viability incubated for 72 hrs by MTT assay; assay type: functional, cell-based; details: HCT-116, 72 h
[9] = system: OVCAR-8; experiment: Cell cycle arrest in human OVCAR8 cells assessed as accumulation at S phase at 5 uM incubated for 24 hrs by propidium iodide staining based flow cytometry (reference value: 7.1 +/- 0.86%); assay type: functional
[10] = system: OVCAR-8; experiment: Cell cycle arrest in human OVCAR8 cells assessed as accumulation at G2/M phase at 10 uM incubated for 24 hrs by propidium iodide staining based flow cytometry (reference value: 25.78 +/- 0.71%); assay type: functional
[11] = system: HL-60; experiment: Cytotoxicity against human HL60 cells assessed as reduction in cell viability incubated for 72 hrs by MTT assay; assay type: functional, cell-based; details: HL-60, 72 h
[12] = system: OVCAR-8; experiment: Induction of apoptosis in human OVCAR8 cells assessed as reduction in cell viability at 0.6 uM incubated for 48 hrs by acridine orange and ethidium bromide dye based fluorescence microscopy analysis; assay type: functional
[13] = system: OVCAR-8; experiment: Induction of apoptosis in human OVCAR8 cells assessed as increase in apoptotic cells at 0.6 uM incubated for 48 hrs by acridine orange and ethidium bromide dye based fluorescence microscopy analysis; assay type: functional, cell-based
[14] = system: OVCAR-8; experiment: Induction of apoptosis in human OVCAR8 cells assessed as chromatin condensation at 0.03 uM incubated for 48 hrs by hematoxylin and eosin staining based […] analysis; assay type: functional, cell-based
[15] = system: OVCAR-8; experiment: Cell cycle arrest in human OVCAR8 cells assessed as accumulation at G2/M phase at 0.05 uM incubated for 24 hrs by propidium iodide staining based flow cytometry (reference value: 25.78 +/- 0.71%); assay type: functional
[16] = system: OVCAR-8; experiment: Cytotoxicity against human OVCAR8 cells assessed as reduction in cell viability at 0.05 uM measured upto 98 hrs by xcCELLigence RTCA analysis; assay type: functional, cell-based
[17] = system: OVCAR-8; experiment: Induction of apoptosis in human OVCAR8 cells assessed as reduction in cell viability at 0.03 uM incubated for 48 hrs by acridine orange and ethidium bromide dye based fluorescence microscopy analysis; assay type: functional
[18] = system: OVCAR-8; experiment: Cell cycle arrest in human OVCAR8 cells assessed as accumulation at G0/G1 phase at 0.05 uM incubated for 24 hrs by propidium iodide staining based flow cytometry (reference value: 67.06 +/- 1.42%); assay type: functional
[19] = system: OVCAR-8; experiment: Cell cycle arrest in human OVCAR8 cells assessed as accumulation at S phase at 0.05 uM incubated for 24 hrs by propidium iodide staining based flow cytometry (reference value: 7.1 +/- 0.86%); assay type: functional
[20] = system: OVCAR-8; experiment: Induction of apoptosis in human OVCAR8 cells assessed as nuclear fragmentation at 0.03 uM incubated for 48 hrs by hematoxylin and eosin staining based […] analysis; assay type: functional, cell-based
[21] = system: OVCAR-8; experiment: Induction of apoptosis in human OVCAR8 cells assessed as increase in apoptotic cells at 0.03 uM incubated for 48 hrs by acridine orange and ethidium bromide dye based fluorescence microscopy analysis; assay type: functional, cell-based
[22] = system: OVCAR-8; experiment: Induction of apoptosis in human OVCAR8 cells assessed as reduction in cell volume at 0.03 uM incubated for 48 hrs by hematoxylin and eosin staining based […] analysis; assay type: functional
[23] = system: OVCAR-8; experiment: Cell cycle arrest in human OVCAR8 cells assessed as accumulation at S phase at 2.5 uM incubated for 24 hrs by propidium iodide staining based flow cytometry (reference value: 7.1 +/- 0.86%); assay type: functional
[24] = system: OVCAR-8; experiment: Induction of apoptosis in human OVCAR8 cells assessed as reduction in cell viability incubated for 48 hrs by acridine orange and ethidium bromide dye based fluorescence microscopy analysis; assay type: functional
[25] = system: OVCAR-8; experiment: Cell cycle arrest in human OVCAR8 cells assessed as accumulation at G0/G1 phase at 2.5 uM in presence of PTX incubated for 24 hrs by propidium iodide staining based flow cytometry (reference value: 67.06 +/- 1.42%); assay type: functional
[26] = system: OVCAR-8; experiment: Cell cycle arrest in human OVCAR8 cells assessed as accumulation at G2/M phase at 2.5 uM incubated for 24 hrs by propidium iodide staining based flow cytometry (reference value: 25.78 +/- 0.71%); assay type: functional
[27] = system: Lytechinus variegatus; experiment: Antimitotic activity against sea urchin eggs assessed as inhibition of egg development at first cleavage; assay type: functional, organism-based
[28] = system: OVCAR-8; experiment: Induction of apoptosis in human OVCAR8 cells assessed as increase in apoptotic cells incubated for 48 hrs by acridine orange and ethidium bromide dye based fluorescence microscopy analysis; assay type: functional, cell-based
[29] = system: OVCAR-8; experiment: Cell cycle arrest in human OVCAR8 cells assessed as accumulation at G0/G1 phase at 2.5 uM incubated for 24 hrs by propidium iodide staining based flow cytometry (reference value: 67.06 +/- 1.42%); assay type: functional
[30] = system: OVCAR-8; experiment: Induction of apoptosis in human OVCAR8 cells assessed as chromatin condensation at 20 to 40 uM incubated for 48 hrs by hematoxylin and eosin staining based […] analysis; assay type: functional, cell-based
[31] = system: Lytechinus variegatus; experiment: Antimitotic activity against sea urchin eggs assessed as inhibition of development at second cleavage; assay type: functional, organism-based
[32] = system: OVCAR-8; experiment: Cell cycle arrest in human OVCAR8 cells assessed as accumulation at S phase at 2.5 uM in presence of PTX incubated for 24 hrs by propidium iodide staining based flow cytometry (reference value: 7.1 +/- 0.86%); assay type: functional
[33] = system: OVCAR-8; experiment: Cytotoxicity against human OVCAR8 cells assessed as reduction in cell viability measured upto 98 hrs by xcCELLigence RTCA analysis; assay type: functional, cell-based
[34] = system: Lytechinus variegatus; experiment: Antimitotic activity against sea urchin eggs assessed as inhibition of egg development at blastulation stage; assay type: functional, organism-based
[35] = system: OVCAR-8; experiment: Cell cycle arrest in human OVCAR8 cells assessed as accumulation at G2/M phase at 2.5 uM in presence of PTX incubated for 24 hrs by propidium iodide staining based flow cytometry (reference value: 25.78 +/- 0.71%); assay type: functional
[36] = system: MCF7; experiment: Cell cycle arrest in human MCF7 cells assessed as increase in accumulation at G2/M phase at 8 uM incubated for 24 hrs by propidium iodide staining based flow cytometry relative to control; assay type: functional
[37] = Cytotoxicity against human PBMC assessed as cell viability at 10 ug/ml incubated for 72 hrs by trypan blue dye based assay; details: read-out: Activity

COc1ccc2c(c1)OC1c3cc(OC)c(OC)cc3OCC21 (racemic)
Activity [1]: 37.16% | Activity [2]: 10.93% | IC50 [3]: 5930 nM | IC50 [4]: 14000 nM | Activity [5]: 46.72% | Activity [6]: inactive | Activity [7]: 52.61% | IC50 [8]: 11400 nM | Activity [9]: 10.02% | Activity [10]: 42.06% | IC50 [11]: 760 nM

COc1ccc2c(c1)O[C@H]1c3cc(OC)c(OC)cc3OC[C@@H]21
IC50 [3]: 82800 nM | IC50 [4]: 32800 nM | IC50 [8]: 38500 nM | IC50 [11]: 82800 nM

COc1cccc2c1C(=O)c1c(O)c3c(c(O)c1C2=O)C[C@@](O)(C(=O)CO)C[C@@H]3O[C@H]1C[C@H](N)[C@H](O)[C@H](C)O1 [DOXORUBICIN]
Activity [12]: Active | Activity [13]: Active | IC50 [4]: 80 nM | IC50 [11]: 40 nM

CC(=O)O[C@H]1C(=O)[C@@]2(C)[C@H]([C@H](OC(=O)c3ccccc3)[C@]3(O)C[C@H](OC(=O)[C@H](O)[C@@H](NC(=O)c4ccccc4)c4ccccc4)C(C)=C1C3(C)C)[C@]1(OC(C)=O)CO[C@@H]1C[C@@H]2O [PACLITAXEL]
Activity [14]: Active | Activity [15]: 49.97% | Activity [16]: Active | Activity [17]: Active | Activity [18]: 34.28% | Activity [19]: 15.72% | Activity [20]: Active | Activity [21]: Active | Activity [22]: Active

COc1ccc2c(c1)O[C@@H]1c3cc(OC)c(OC)cc3OC[C@H]21
Activity [23]: 9.1% | Activity [24]: Dose-dependent effect | Activity [25]: 10.98% | Activity [26]: 32.71% | IC50 [27]: 7.94 nM | Activity [1]: 75.24% | Activity [28]: Dose-dependent effect | Activity [29]: 58.16% | Activity [2]: 9.92% | IC50 [3]: 1790 nM | Activity [30]: Active | IC50 [31]: 12.3 nM | IC50 [4]: 3610 nM | Activity [32]: 10.39% | Activity [33]: Dose-dependent effect | IC50 [34]: 10.7 nM | Activity [35]: 78.62% | Activity [5]: 10.84% | Activity [7]: 15.83% | IC50 [8]: 2420 nM | Activity [9]: 8.76% | Activity [36]: 32% | Activity [10]: 79.13% | viability at 72 h, 10 ug/ml [37]: 81% | IC50 [11]: 200 nM
